Data on ten compounds can be found in US5686102A, “Pharmacological composition for topical administration” (Lancaster Group AG, priority 1992, dated 1997).

Where two headings read alike, the source gives them in different places.

Data set [1] is described as follows: Critical solubility temperature (CST) in n-hexane. An excerpt: FIG. 1 is a diagram of the critical solubility temperatures (CST) of perfluorocarbon mixtures in n-hexane using perfluorodecalin as a starting point
FIG. 2 is a diagram of the critical solubility temperatures of perfluorocarbon mixtures in n-hexane using F-octylbromide as a starting point.

Data set [2] is described as follows: O2 solubility of fluorocarbons. It is filed as physicochemical.
The nature of data set [3]: Vapour pressure of fluorocarbons at 37° C. It is filed as physicochemical.
Data set [4] is described as follows: Penetration into skin and residence time/release of labelled encapsulated fluorocarbons, animal experiments. It is filed as in vivo.
From the text: By means of separate investigations, it was possible to determine the dependence of the penetration rates and the depth of penetration on the particle size of the aggregates experimentally in animal experiments using labelled encapsulated fluorocarbons. […] The choice of fluorocarbons or mixtures thereof according to their lipid solubility (represented by their critical solubility temperature CST in n-hexane) permits, as a further important criterion, the control of the residence time in the tissue. […] With the aid of fluorocarbon mixtures, in this way systems having desired CST values, i.e. lipid and membrane solubilities, with respect to the intended use can be prepared in a controlled manner.
Where [5] appears, read: critical solubility temperature in n-hexane.

Compound `FC(F)(F)C(F)(F)C(F)(F)C(F)(F)C=CC(F)(F)C(F)(F)C(F)(F)C(F)(F)F` [Bis-F(butyl)ethene, bis-F(butyl)ethene] displayed a CST in data set [1] (setting [5]) of 22.5 °C. Take `FC1(F)OC(F)(F)C(F)(F)N(C(F)(F)C2(F)C(F)(F)C(F)(F)C(F)(F)C(F)(F)C2(F)F)C1(F)F` [F-cyclohexylmethylmorpholine]: the CST in data set [1] (setting [5]) amounted to 38.5 °C. Also, in data set [2], the O2 solubility is given as 42 ml of O2 /100 ml of Fc. Also, the “Vapour Pressure” value in data set [3] came to 4 mm Hg. With `FC(F)(F)C(F)(F)C(F)(F)C(F)(F)C(F)(F)C(F)(F)OC(F)(F)C(F)(F)C(F)(F)C(F)(F)C(F)(F)C(F)(F)F` [F-dihexyl ether], the CST in data set [1] (setting [5]) is 59 °C. In the case of `FC(F)(F)C(F)(F)C(F)(F)C(F)(F)C(F)(F)C(F)(F)F` [F-hexane, perfluorohexane], in data set [4] (in vivo), the “release from the tissue” value is “released correspondingly more rapidly from the tissue”. Turning to `FC(F)(F)C1(F)C(F)(F)C(F)(F)C(F)(F)C(F)(F)C1(F)F` [F-methylcyclohexane, perfluoromethylcyclohexane], the CST in data set [1] (setting [5]) was 8.2 °C. Consider `FC(F)(F)C(F)(F)C(F)(F)C(F)(F)N(C(F)(F)C(F)(F)C(F)(F)C(F)(F)F)C(F)(F)C(F)(F)C(F)(F)C(F)(F)F` [F-tributylamine, perfluorotributylamine], for which the CST in data set [1] (setting [5]) came out at 59 °C. For the same compound, in data set [4] (in words, related to CST / lipid solubility), the “residence time in the tissue” value is “relatively large residence time”. As for `FC(F)(F)C(F)(F)C(F)(F)N(C(F)(F)C(F)(F)C(F)(F)F)C(F)(F)C(F)(F)C(F)(F)F` [F-tripropylamine], the CST in data set [1] was 43 °C. Regarding `FC(F)(F)C(F)(F)C(F)(F)C(F)(F)C1(F)OC(F)(F)C(F)(F)C1(F)F` (centres unmarked) [Perfluorobutyltetrahydrofuran, perfluorobutyltetrahydrofuran], the CST in data set [1] (setting [5]) came out at 29 °C. Besides, the O2 solubility in data set [2] was 52 ml of O2 /100 ml of Fc. Moreover, the “Vapour Pressure” value in data set [3] came to 51 mm Hg. The “release from the tissue” value in data set [4] (in words, compared with perfluorotributylamine) is “released correspondingly more rapidly from the tissue”. Compound `FC1(F)C(F)(F)C(F)(F)C2(F)C(F)(F)C(F)(F)C(F)(F)C(F)(F)C2(F)C1(F)F` (centres unmarked) [Perfluorodecalin, perfluorodecalin] returned a CST in data set [1] of 22 °C. Moreover, the “release from the tissue” value in data set [4] (in vivo) is on record as “released correspondingly more rapidly from the tissue”. `FC(F)(F)C(F)(F)C(F)(F)C(F)(F)C(F)(F)C(F)(F)C(F)(F)C(F)(F)Br` [Perfluorooctyl bromide, perfluorooctyl bromide] registered a CST in data set [1] of -24.5 °C.
